# Assay results from patent EP4818155A1, “AZOBENZENE-[…], PROTEIN-COUPLED DRUG […], AND PHARMACEUTICAL USE THEREOF” (priority 2023, dated 2025).
# Square brackets hold non-standard residues; d marks the D form. Peptide text beside a SMILES is read from it. * marks the point of attachment. Dolaproine = CO[C@@H]([C@@H]1CCCN1)[C@@H](C)C(=O)O; Dil = CC[C@H](C)[C@H](NC)[C@@H](CC(=O)O)OC; X1 = C[C@@H](N*)[C@@H](O)c1ccccc1; NMeV = CN[C@H](C(=O)O)C(C)C
# How the values were obtained:
# [1] = Distribution and metabolism in blood, tissues and tumour; format: in vivo, mice; conditions: for area under the drug-time curve as share of that in tumors: after compound III-2 25 mg/kg
# Procedure: The present example evaluated distribution and metabolism of compound III-2. SKOV3 ovarian cancer tumor-bearing mice were randomly divided into 6 groups. After tail vein injection with a single dose of compound III-2 (25 mg/kg), the mice were euthanized at the predetermined time points of 6 h, 24h, 72 h, 96 h, 168 h, 192 h in order, and blood, heart, liver, spleen, lung, and tumor samples were collected. The blood and tissue samples were stored at -80 °C for further analysis. […] At 96 h after the administration, Cys-II-2 was hardly detected in heart, liver, spleen, and lung. The peak concentration and area under the curve of the cytotoxin MMAE in the tumor were 293 times and 941 times those in peripheral blood, respectively, further proving that the excellent targeting capability of compound III-2. The area under the drug-time curve of MMAE in heart, liver, spleen and lung were 11%, 47%, 5% and 7% of area under the drug-time curve in tumors, respectively. […] Table 5 Concentration of Cys-II-2 in each group
# BT-474 = experiment: In vitro cytotoxicity (CellTiter Glo); format: cell-based; conditions: Homo sapiens, BT-474, read-out: EC50 (cell proliferation inhibitory activity)
# Procedure: (§1) The test procedure was shown as follows: • 1. Thawing Cell • Cryopreserved target cells was thawed by gentle agitation of the cryovial in a 37 °C water bath; • after thawing, the cryovial was removed from the water bath and decontaminated by spraying or immersing in 70% ethanol; • the cells in the cryovial were transferred into a centrifuge tube containing 9 mL of complete DMEM culture medium, followed by centrifugation at 200 g for 5 min; • the cells were resuspended with culture medium, and precipitated and seeded into a 75 cm^2 culture flask; • the cells were cultured in a Galaxy® CO2 incubator (48R, #CO48312044) under standard culture conditions of 37 °C, 20% oxygen and 5% carbon dioxide. • 2. Spreading Cell • Cells were subcultured three times per week at a ratio of 1:4 in a culture medium supplemented with 10% FBS (heat inactivated) and a 1% Penicillin-Streptomycin solution; • for cell passaging, adherent cells were first rinsed with 3 mL of trypsin/EDTA solution (3 mL). Then, 3 mL of trypsin/EDTA solution was added to the T75 culture flask, and the flask was gently rotated to ensure uniform coverage of the cell. The cells were incubated at 37 °C until complete cell detachment was achieved. Cell detachment was verified under a microscope, then an equal volume of the cell culture medium was added to inactivate the trypsin, and the separated cells were collected, centrifuged at 200 g for 5 minutes, and then re-suspended in a fresh culture medium. • 3. Inoculating cell • The cells were collected and counted; • 100 µ L of a cell suspension with adjusted density were inoculated to a 96-well cell culture plate, and the final cell density was about from 5000 cells/well to 10000 cells/well; • The culture plate was covered and incubated in a 5% CO2 incubator with 20% oxygen at 37 °C for 24 h. • 4. […] Co-incubation of cells with test compounds The culture medium in the 96 wells plate inoculated with cells was discarded, 150 µL of fresh culture medium was added to each well, and then 50 µL of the prepared test compounds were added to the 96-well plate. After the cells were co-incubated with the compounds in an incubator under conditions of 37 °C, 5% CO2, and 0.1% O2 for 24 h. After incubation, the drug-containing medium was removed, and the cells were rinsed with a fresh culture medium. Then the cells were placed in an incubator at 37 °C, 5% CO2, and 20% O2 and continuously cultured for an additional 72 h or 120 h. • 6. Reading plate • The plate was taken out of the incubator and equilibrated for 15 minutes at room temperature; • prior to the experiment, the CellTiter Glo reagent was incubated at 37 °C; • The detection solution was prepared by diluting CellTiter-Glo reagent with PBS at a volume ratio of 3:7, and the diluted solution was added into the wells to be tested; • the plate was then shaken at room temperature for 8 min, and allowed to stand for 2 min, and then signals were detected using an EnSpire reader. • 7.
# NCI-N87 = experiment: In vitro cytotoxicity (CellTiter Glo); format: cell-based; conditions: Homo sapiens, hypoxic conditions (0.1% O2), HER2+, read-out: EC50 (cell proliferation inhibitory activity)
# Procedure: as §1
# SKBR3 = experiment: In vitro cytotoxicity (CellTiter Glo); format: cell-based; conditions: Homo sapiens, SK-BR-3, read-out: EC50 (cell proliferation inhibitory activity)
# Procedure: as §1
# MDA-MB-231 = experiment: In vitro cytotoxicity (CellTiter Glo); format: cell-based; conditions: Homo sapiens, hypoxic conditions (0.1% O2), HER2-, read-out: EC50 (cell proliferation inhibitory activity)
# Procedure: as §1
# MCF-7 = experiment: In vitro cytotoxicity (CellTiter Glo); format: cell-based; conditions: Homo sapiens, MCF7; hypoxic conditions (0.1% O2), HER2-; read-out: EC50 (cell proliferation inhibitory activity)
# Procedure: as §1
# [2] = tested on: Staphylococcus aureus USA300; experiment: Antibacterial activity against free bacteria (OD600nm); format: cell-based; conditions: free USA300, 37 °C, 16 h to 18h
# Procedure: The present example evaluated the antibacterial efficacy of compound III-16 against free Staphylococcus aureus. 5 µL to 10 µL of a Staphylococcus aureus USA300 stock suspension stored at - 80 °C was taken and streaked on Brain Heart Infusion solid culture plates and incubated overnight at 37 °C in a biochemical incubator. A single USA300 colony was picked from the solid culture plates, inoculated into an appropriate volume of Brain Heart Infusion medium, and activated for 16 h to 18 h in a bacteria shaking incubator, then the bacterial suspension was centrifuged for 5 min at a rotating speed of 4000 rpm to collect the bacteria. The bacteria were resuspended in 1×PBS and the bacterial density was diluted to about […]. The diluted bacterial suspension was added to 96-well plates at 100 µL per well. Serially diluted compound III-16 and rifalogue were added to the bacterial suspension in the 96-well plates, and the bacteria was cultured in a biochemical incubator at 37 °C for 16 h to 18h, then the OD600nm was detected using a microplate reader. […] Without being limited by theories, it is speculated that the activity of compound III-16 against free bacteria may be stemed from the cleavage of the linker in compound III-16 by azoreductase extracellularly secreted by the bacteria, which releases rifalogue to exert antibacterial effect.
# [3] = after compound III-2 25 mg/kg single tail vein injection
smiles,measurement,setting,value
CC[C@H](C)[C@@H]([C@@H](CC(=O)N1CCC[C@H]1[C@H](OC)[C@@H](C)C(=O)N[C@H](C)[C@@H](O)c1ccccc1)OC)N(C)C(=O)[C@@H](NC(=O)[C@@H](NC)C(C)C)C(C)C [MMAE] (H-[NMeV]V[Dil][Dolaproine]-X1),Concentration of MMAE,"[1]; Blood, 6 h, after compound III-2 25 mg/kg single tail vein injection",1.54 ng/g or ng/mL
same,Concentration of MMAE,"[1]; Blood, 24 h, after compound III-2 25 mg/kg single tail vein injection",0.51 ng/g or ng/mL
same,Concentration of MMAE,"[1]; Blood, 72 h, after compound III-2 25 mg/kg single tail vein injection",0.23 ng/g or ng/mL
same,Concentration of MMAE,"[1]; Blood, 96 h, after compound III-2 25 mg/kg single tail vein injection",0.12 ng/g or ng/mL
same,Concentration of MMAE,"[1]; Blood, 168 h, after compound III-2 25 mg/kg single tail vein injection",0.10 ng/g or ng/mL
same,Concentration of MMAE,"[1]; Blood, 192 h, after compound III-2 25 mg/kg single tail vein injection",BQL
same,Concentration of MMAE,"[1]; Heart, 6 h, after compound III-2 25 mg/kg single tail vein injection",112.72 ng/g or ng/mL
same,Concentration of MMAE,"[1]; Heart, 24 h, after compound III-2 25 mg/kg single tail vein injection",71.97 ng/g or ng/mL
same,Concentration of MMAE,"[1]; Heart, 72 h, after compound III-2 25 mg/kg single tail vein injection",32.46 ng/g or ng/mL
same,Concentration of MMAE,"[1]; Heart, 96 h, after compound III-2 25 mg/kg single tail vein injection",17.99 ng/g or ng/mL
same,Concentration of MMAE,"[1]; Heart, 168 h, after compound III-2 25 mg/kg single tail vein injection",2.70 ng/g or ng/mL
same,Concentration of MMAE,"[1]; Heart, 192 h, after compound III-2 25 mg/kg single tail vein injection",0.80 ng/g or ng/mL
same,Concentration of MMAE,"[1]; Liver, 6 h, after compound III-2 25 mg/kg single tail vein injection",348.31 ng/g or ng/mL
same,Concentration of MMAE,"[1]; Liver, 24 h, after compound III-2 25 mg/kg single tail vein injection",269.21 ng/g or ng/mL
same,Concentration of MMAE,"[1]; Liver, 72 h, after compound III-2 25 mg/kg single tail vein injection",115.44 ng/g or ng/mL
same,Concentration of MMAE,"[1]; Liver, 96 h, after compound III-2 25 mg/kg single tail vein injection",101.72 ng/g or ng/mL
same,Concentration of MMAE,"[1]; Liver, 168 h, after compound III-2 25 mg/kg single tail vein injection",26.86 ng/g or ng/mL
same,Concentration of MMAE,"[1]; Liver, 192 h, after compound III-2 25 mg/kg single tail vein injection",10.07 ng/g or ng/mL
same,Concentration of MMAE,"[1]; Lung, 6 h, after compound III-2 25 mg/kg single tail vein injection",22.96 ng/g or ng/mL
same,Concentration of MMAE,"[1]; Lung, 24 h, after compound III-2 25 mg/kg single tail vein injection",12.85 ng/g or ng/mL
same,Concentration of MMAE,"[1]; Lung, 72 h, after compound III-2 25 mg/kg single tail vein injection",19.79 ng/g or ng/mL
same,Concentration of MMAE,"[1]; Lung, 96 h, after compound III-2 25 mg/kg single tail vein injection",43.95 ng/g or ng/mL
same,Concentration of MMAE,"[1]; Lung, 168 h, after compound III-2 25 mg/kg single tail vein injection",1.93 ng/g or ng/mL
same,Concentration of MMAE,"[1]; Lung, 192 h, after compound III-2 25 mg/kg single tail vein injection",1.04 ng/g or ng/mL
same,Concentration of MMAE,"[1]; Spleen, 6 h, after compound III-2 25 mg/kg single tail vein injection",21.29 ng/g or ng/mL
same,Concentration of MMAE,"[1]; Spleen, 24 h, after compound III-2 25 mg/kg single tail vein injection",19.80 ng/g or ng/mL
same,Concentration of MMAE,"[1]; Spleen, 72 h, after compound III-2 25 mg/kg single tail vein injection",20.24 ng/g or ng/mL
same,Concentration of MMAE,"[1]; Spleen, 96 h, after compound III-2 25 mg/kg single tail vein injection",13.60 ng/g or ng/mL
same,Concentration of MMAE,"[1]; Spleen, 168 h, after compound III-2 25 mg/kg single tail vein injection",3.82 ng/g or ng/mL
same,Concentration of MMAE,"[1]; Spleen, 192 h, after compound III-2 25 mg/kg single tail vein injection",1.40 ng/g or ng/mL
same,Concentration of MMAE,"[1]; Tumour, 6 h, after compound III-2 25 mg/kg single tail vein injection",54.24 ng/g or ng/mL
same,Concentration of MMAE,"[1]; Tumour, 24 h, after compound III-2 25 mg/kg single tail vein injection",179.62 ng/g or ng/mL
same,Concentration of MMAE,"[1]; Tumour, 72 h, after compound III-2 25 mg/kg single tail vein injection",292.45 ng/g or ng/mL
same,Concentration of MMAE,"[1]; Tumour, 96 h, after compound III-2 25 mg/kg single tail vein injection",451.68 ng/g or ng/mL
same,Concentration of MMAE,"[1]; Tumour, 168 h, after compound III-2 25 mg/kg single tail vein injection",198.90 ng/g or ng/mL
same,Concentration of MMAE,"[1]; Tumour, 192 h, after compound III-2 25 mg/kg single tail vein injection",125.44 ng/g or ng/mL
same,area under the curve in the tumor relative to peripheral blood,[1]; [3],941 times
same,peak concentration in the tumor relative to peripheral blood,[1]; [3],293 times
same,area under the drug-time curve as share of that in tumors,[1]; heart,11%
same,area under the drug-time curve as share of that in tumors,[1]; liver,47%
same,area under the drug-time curve as share of that in tumors,[1]; lung,7%
same,area under the drug-time curve as share of that in tumors,[1]; spleen,5%
same,EC50,BT-474,0.032 nM
same,EC50,NCI-N87,0.24 nM
same,EC50,SKBR3,0.058 nM
same,EC50,MDA-MB-231,0.57 nM
same,EC50,MCF-7,0.015 nM
CO[C@H]1C=CO[C@@]2(C)Oc3c(C)c(O)c4c(=O)c(c5oc6cc(N7CCC(N(C)C)CC7)cc(=O)c6nc5c4c3=C2O)NC(=O)/C(C)=C\C=C/[C@H](C)[C@H](O)[C@@H](C)[C@@H](O)[C@@H](C)[C@H](OC(C)=O)[C@@H]1C [rifalogue],MIC90,[2],about 1.4 nM
